Reference: patent US9969766B2, “20(R)-ginsenoside Rg3 polyacylated derivatives, preparation and application thereof” (priority 2014, dated 2018)

Columns and labels:
Settings in all cases: po × 14bid
[1] = test system: human breast cancer Bcap-37 cells; assay: Human breast cancer Bcap-37 subcutaneous inoculation in nude mice
Text: human breast cancer Bcap-37 model, human lung cancer A549 model, human intestinal cancer LOVO model, human stomach cancer MGC model and human liver cancer QGY model, with tumor cell lines being of the second generation or more, mouse B16 melanoma cell line, mouse Lewis lung cancer model, mouse sarcoma s180 model, all passaged and preserved in Pharmacological Division of Shanghai Institute of Pharmaceutical Industry. 3. Experiment Animals Origins: nude mice, 6-week old, 18-22 g/mouse, provided by Laboratory Animal Center of Chinese Academy of Sciences, Shanghai Branch, with certification No. 2001A032. C57BL/6 mice and Kunming mice, 18-22 g/mouse, provided by Laboratory Animal Center of Chinese Academy of Sciences, Shanghai Branch, with certification SYXK (Shanghai) 2004-0015. Gender: male or female, the same gender for each batch in experiment Animal numbers: 10 mice and 10 nude mice for each of positive control group and test group in experiment, and 20 for negative control group. 4. Experiment Design Dose Settings: doses for 20(R)-ginsenoside Rg3 octo-acetate, 20(R)-ginsenoside Rg3 octo-n-butyrate and 20(R)-ginsenoside Rg3 octo-n-propionate were set as high-dose group (0.3 mg/kg/d), medium-dose group (0.06 mg/kg/d), and low-dose group (0.012 mg/kg/d). Dosage regimen: oral administration, twice daily. human tumor model and cell-inoculated mouse model: po×14 bid; mouse tumor-inoculated model: po×10 bid. Control Trial: negative control group: given with the same volume of 5% CMC-Na as the test group, and the same dosage regimen as the test group. positive control group: […] 5. Experiment Method and Key Steps 5.1 Anti-Tumor Test 5.1.1 Subcutaneous Inoculation Model
(§1) Tumor cells of vigorous growth stage were taken under sterile condition and made into cell suspensions of about 1-2×10^7/ml by homogenization, the suspensions were inoculated subcutaneously at 0.2 ml/mouse in host mice and repeated on the next day according to the experiment design, the animals in each group were slaughtered after about three weeks, the tumors were collected and weighed, and the tumor inhibition rates were calculated according to the following equation: tumor inhibition rate %=[(average tumor weight of control group-average tumor weight of treatment group)/average tumor weight of control group]×100%
The same operation was repeated in human tumor xenograft model, except that the feed, packing, cage and contact instruments were all sterilized under high pressure before use and the nude mice were fed in a laminar flow rack. The tumors and tumor-bearing animal weight gains were dynamically measured (tumor size measured using caliper: long diameter/a, short diameter/b, and tumor bulk=a×b^2/2).

mouse sarcoma S180 cells = assay: Mouse sarcoma S180 metastasis model
Text: (§2) human breast cancer Bcap-37 model, human lung cancer A549 model, human intestinal cancer LOVO model, human stomach cancer MGC model and human liver cancer QGY model, with tumor cell lines being of the second generation or more, mouse B16 melanoma cell line, mouse Lewis lung cancer model, mouse sarcoma s180 model, all passaged and preserved in Pharmacological Division of Shanghai Institute of Pharmaceutical Industry. 3. Experiment Animals Origins: nude mice, 6-week old, 18-22 g/mouse, provided by Laboratory Animal Center of Chinese Academy of Sciences, Shanghai Branch, with certification No. 2001A032. C57BL/6 mice and Kunming mice, 18-22 g/mouse, provided by Laboratory Animal Center of Chinese Academy of Sciences, Shanghai Branch, with certification SYXK (Shanghai) 2004-0015. Gender: male or female, the same gender for each batch in experiment Animal numbers: 10 mice and 10 nude mice for each of positive control group and test group in experiment, and 20 for negative control group. 4. Experiment Design Dose Settings: doses for 20(R)-ginsenoside Rg3 octo-acetate, 20(R)-ginsenoside Rg3 octo-n-butyrate and 20(R)-ginsenoside Rg3 octo-n-propionate were set as high-dose group (0.3 mg/kg/d), medium-dose group (0.06 mg/kg/d), and low-dose group (0.012 mg/kg/d). Dosage regimen: oral administration, twice daily. human tumor model and cell-inoculated mouse model: po×14 bid; mouse tumor-inoculated model: po×10 bid. Control Trial: negative control group: given with the same volume of 5% CMC-Na as the test group, and the same dosage regimen as the test group. positive control group: Cyclophosphamide CTX 30 mg/kg, MMC 2 mg/kg and 5Fu 30 mg/kg by intraperitoneal or intravenous administration, once daily, for seven consecutive days. 5. Experiment Method and Key Steps 5.1 Anti-Tumor Test 5.1.1 Subcutaneous Inoculation Model

mouse Lewis lung cancer = assay: Mouse Lewis lung cancer (subcutaneous inoculation) metastasis model
Text: as §2, §1

[2] = test system: human liver cancer QGY cells; assay: Human liver cancer QGY liver in-situ inoculation, survival
Text: as §2
Under sterile condition, the in vivo passage of the second generation of QGY tumor source of vigorous growth stage was prepared into cell suspensions of about 1-2×10^7/ml by homogenization (1:6), and the homogenates were filtered using 100-mesh stainless steel screen, getting ready for use. The nude mice were disinfected routinely and anaesthetized and cut at the xiphoid in the middle of the abdominal cavity to expose the liver, the cell suspensions (0.05 ml) were injected into liver parenchyma using imported 28 ga ½ ml syringes, the abdominal cavity was closed and then sutured layer by layer. The nude mice were fed in the laminar flow rack, with all the feed, packing, cage and contact instruments being sterilized under high pressure before use.

CC(=O)OC[C@H]1O[C@@H](OC2CC[C@]3(C)C(CC[C@@]4(C)C3C[C@H](OC(C)=O)C3C([C@@](C)(O)CCC=C(C)C)CC[C@@]34C)C2(C)C)[C@H](OC2O[C@H](COC(C)=O)[C@@H](OC(C)=O)[C@H](OC(C)=O)[C@H]2OC(C)=O)[C@@H](OC(C)=O)[C@@H]1OC(C)=O (stereo partly drawn) [Rg3-octo-acetate, 20 (R)-ginsenoside Rg3 octaacetate]
Tumor inhibition rate % ([1]; 0.012 mg/kg/d): 47.93% | Tumor weight (g) X ± SD ([1]; 0.012 mg/kg/d): 0.672 ± 0.07 g | Tumor inhibition rate % ([1]; 0.06 mg/kg/d): 59.69% | Tumor weight (g) X ± SD ([1]; 0.06 mg/kg/d): 0.520 ± 0.08 g | Tumor inhibition rate % ([1]; 0.3 mg/kg/d): 68.98% | Tumor weight (g) X ± SD ([1]; 0.3 mg/kg/d): 0.400 ± 0.09 g | Anti-metastasis rate % (mouse sarcoma S180 cells; 0.012 mg/kg/d): 51.50% | Lung clone numbers (mice) X ± SD (mouse sarcoma S180 cells; 0.012 mg/kg/d): 1.43 ± 7.1 | Anti-metastasis rate % (mouse sarcoma S180 cells; 0.06 mg/kg/d): 65.80% | Lung clone numbers (mice) X ± SD (mouse sarcoma S180 cells; 0.06 mg/kg/d): 1.01 ± 7.2 | Anti-metastasis rate % (mouse sarcoma S180 cells; 0.3 mg/kg/d): 78.94% | Lung clone numbers (mice) X ± SD (mouse sarcoma S180 cells; 0.3 mg/kg/d): 0.62 ± 7.3 | Anti-metastasis rate % (mouse Lewis lung cancer; 0.012 mg/kg/d): 50.30% | Lung clone numbers (mice) X ± SD (mouse Lewis lung cancer; 0.012 mg/kg/d): 1.38 ± 0.13 | Anti-metastasis rate % (mouse Lewis lung cancer; 0.06 mg/kg/d): 58.90% | Lung clone numbers (mice) X ± SD (mouse Lewis lung cancer; 0.06 mg/kg/d): 1.14 ± 0.12 | Anti-metastasis rate % (mouse Lewis lung cancer; 0.3 mg/kg/d): 69.96% | Lung clone numbers (mice) X ± SD (mouse Lewis lung cancer; 0.3 mg/kg/d): 0.84 ± 0.15 | Animal body weight (g) Start ([2]; 0.012 mg/kg/d): 19.1 g | Animal body weight (g) end ([2]; 0.012 mg/kg/d): 25.2 g | Average survival (d) X ± SD ([2]; 0.012 mg/kg/d): 37.26 ± 4.5 days | Life extension rate T/C × % ([2]; 0.012 mg/kg/d): 159.58% | Animal body weight (g) Start ([2]; 0.06 mg/kg/d): 19.1 g | Animal body weight (g) end ([2]; 0.06 mg/kg/d): 24.3 g | Average survival (d) X ± SD ([2]; 0.06 mg/kg/d): 38.90 ± 4.1 days | Life extension rate T/C × % ([2]; 0.06 mg/kg/d): 166.59% | Animal body weight (g) Start ([2]; 0.3 mg/kg/d): 19.3 g | Animal body weight (g) end ([2]; 0.3 mg/kg/d): 24.8 g | Average survival (d) X ± SD ([2]; 0.3 mg/kg/d): 42.49 ± 5.0 days | Life extension rate T/C × % ([2]; 0.3 mg/kg/d): 181.98%
